Laboratory results published in patent publication US11667602B2, “Compounds and their use” (AstraZeneca AB, priority 2020, dated 2023).
In brackets after ≈: the same amount, converted by molar mass.

What was measured:
human RXFP1 = molecular target: T1, human RXFP1 (Homo sapiens, UniProt Q9HBX9); test: RXFP1 Hu cAMP (Test A); format: cell-based; set-up: expressed in transfected cells; host or cells: Jump-In T-REx CHO-K1 cells (ThermoFisher), induced with 10 ng/ml doxycycline for 24 h; conditions: RXFP1 Hu cAMP; for EC50: read-out: Test A EC50
T1 sequence (Q9HBX9 1-757): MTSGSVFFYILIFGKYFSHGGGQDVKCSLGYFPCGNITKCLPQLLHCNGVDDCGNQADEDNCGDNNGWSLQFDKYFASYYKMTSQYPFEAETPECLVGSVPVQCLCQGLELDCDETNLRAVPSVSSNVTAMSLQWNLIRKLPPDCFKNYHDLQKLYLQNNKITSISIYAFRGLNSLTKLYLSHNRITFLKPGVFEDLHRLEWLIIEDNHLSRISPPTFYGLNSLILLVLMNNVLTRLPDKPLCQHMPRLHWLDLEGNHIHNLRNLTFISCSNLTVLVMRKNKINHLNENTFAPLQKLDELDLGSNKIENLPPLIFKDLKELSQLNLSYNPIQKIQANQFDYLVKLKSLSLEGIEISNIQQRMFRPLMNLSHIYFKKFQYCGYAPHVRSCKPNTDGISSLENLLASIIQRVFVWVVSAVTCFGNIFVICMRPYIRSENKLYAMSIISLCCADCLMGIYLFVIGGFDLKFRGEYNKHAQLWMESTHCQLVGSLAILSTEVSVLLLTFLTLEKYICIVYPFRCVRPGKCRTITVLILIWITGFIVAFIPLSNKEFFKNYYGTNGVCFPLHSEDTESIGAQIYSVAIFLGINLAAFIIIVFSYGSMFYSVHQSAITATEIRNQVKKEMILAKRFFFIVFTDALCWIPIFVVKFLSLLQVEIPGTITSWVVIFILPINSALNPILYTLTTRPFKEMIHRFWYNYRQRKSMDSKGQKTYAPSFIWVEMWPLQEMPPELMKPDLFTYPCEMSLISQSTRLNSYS
Procedure, shortened: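 Read-out is HTRF signal, inversely proportional to cAMP, converted to cAMP amount by standard curve. Stimulation occurred in inducible CHO-K1 cells expressing the human receptor with phosphodiesterases blocked by 0.5 mM IBMX.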

[1] = Human Liver Microsomal Stability (Test C); format: in vitro ADME; conditions: human, liver microsomes
Procedure, shortened: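 Human liver microsome incubation per the Wernevik et al. integrated DMPK panel protocol. Intrinsic clearance reported as CLint in μl/min/mg protein, averaged arithmetically over repeat runs.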

Solubility (Test F) = format: physicochemical; conditions: arithmetic mean if run multiple times
Experimental: The assay was conducted according to the Solubility Assay described in pages 164-167 of Wernevik, J. et al., “A Fully Integrated Assay Panel for Early Drug Metabolism and Pharmacokinetics Profiling”, Assay and Drug Development Technologies, 2020, 18(4), 157-179. Data are reported in Table 36 as solubility ([…]. Where the assay was run multiple times for the same compound, the arithmetic mean is reported.

[2] = Rat Hepatocyte Stability (Test E); format: in vitro ADME; conditions: rat, hepatocytes, geometric mean if run multiple times
Procedure, shortened: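 Run per the published AstraZeneca-type rat hepatocyte stability protocol (Wernevik et al. panel). Values are mean intrinsic clearance, Clint in μl/min/10^6 cells; geometric mean used for repeated runs.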

[3] = Human Hepatocyte Stability (Test D); format: in vitro ADME; conditions: human, cryopreserved pooled human hepatocytes (LiverPool 10-Donor), geometric mean if run multiple times
Procedure, shortened: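 Pooled 10-donor cryopreserved human hepatocytes (≥80% viable) in L-15 medium at 0.25×10^6 cells per 0.25 mL well. Compound added from 100 μM acetonitrile solution; incubated at 37 °C with shaking, acetonitrile-quenched, LC-MS analysed. Clint (μL/min/10^6 cells) from ln % parent vs time slope; geometric mean of repeat runs.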

[4] = Human Plasma Protein Binding (Test B); format: in vitro ADME; conditions: fraction unbound (fu)
Procedure, shortened: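 Human plasma protein binding run per the published Wernevik et al. (2020) integrated DMPK panel protocol. Values are fraction unbound (fu, % free); repeat runs averaged arithmetically.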

Row | Test A Sinf (human RXFP1) | EC50 (human RXFP1) | microsomal CLint [1] | solubility (Solubility (Test F)) | hepatocyte CLint [2] | hepatocyte CLint at 1 µM [3] | Test B Human Plasma Protein Binding (% free) [4] | SMILES
1 | 110% | 37 nM | 13 µL/min/mg | 930 µM (≈ 511 µg/mL) | 24 µL/min/1e6 cells | 2.6 µL/min/1e6 cells | 5.3 % free | COc1cc(Cl)c(O[C@H]2CC[C@@](C)(C(=O)O)CC2)cc1C(=O)N[C@@H]1[C@H]2CC[C@H](C2)[C@@H]1C(=O)NCC(C)(C)C [Example 412]
2 | 113% | > 30 nM | 23 µL/min/mg | > 980 µM | 17 µL/min/1e6 cells | 7.7 µL/min/1e6 cells | 0.86 % free | COc1cc(F)c(O[C@H]2CC[C@@H](C(=O)O)CC2)cc1C(=O)N[C@H]1[C@@H](C(=O)Nc2ccc(F)c(C(F)(F)F)c2)[C@@H]2C=C[C@H]1C2 (single isomer, unassigned) [Example 498]
3 | 107% | 74 nM | 8.3 µL/min/mg | 920 µM (≈ 493 µg/mL) | 17 µL/min/1e6 cells | < 1 µL/min/1e6 cells | 16 % free | COc1cc(C#N)c(O[C@H]2CC[C@@](C)(C(=O)O)CC2)cc1C(=O)N[C@@H]1[C@H]2CC[C@H](C2)[C@@H]1C(=O)NC12CC(C1)C2 [Example 141, (1S,4s)-4-(5-(((1S,2R,3S,4R)-3-(Bicyclo[1.1.1]pentan-1-ylcarbamoyl)-bicyclo[2.2.1]heptan-2-yl)carbamoyl)-2-cyano-4-methoxyphenoxy)-1-methylcyclohexane-1-carboxylic acid]
4 | 110% | 11 nM | 66 µL/min/mg | 800 µM (≈ 447 µg/mL) | 12 µL/min/1e6 cells | 32 µL/min/1e6 cells | 2.5 % free | COc1cc(F)c(OC2CCC(C)(C(=O)O)CC2)cc1C(=O)NC1C2CCC(CC2)C1C(=O)NCC1(C)CCC1 (single isomer, unassigned) [Example 542, (1R,4s)-4-(2-Fluoro-4-methoxy-5-(((2S*,3R*)-3-(((1-methylcyclobutyl)methyl)carbamoyl)bicyclo[2.2.2]octan-2-yl)carbamoyl)phenoxy)-1-methylcyclohexane-1-carboxylic acid]
5 | 101% | 190 nM | 16 µL/min/mg | 900 µM (≈ 571 µg/mL) | 18 µL/min/1e6 cells | 32 µL/min/1e6 cells | <0.32 % free | COc1cc(F)c(-c2ccc(C(=O)O)cc2)cc1C(=O)N[C@@H]1[C@H]2CC[C@H](C2)[C@@H]1C(=O)Nc1cccc(S(=O)(=O)C(F)(F)F)c1 [Example 250]
6 | 103% |  | 63 µL/min/mg | 880 µM (≈ 567 µg/mL) | > 300 µL/min/1e6 cells | 150 µL/min/1e6 cells | 1.4 % free | COc1cc(F)c(OCCCCCC(=O)O)cc1C(=O)N[C@@H]1[C@H]2CC[C@H](C2)[C@@H]1C(=O)Nc1cccc(S(=O)(=O)C(F)(F)F)c1 [Example 435, 6-(2-Fluoro-4-methoxy-5-(((1S,2R,3S,4R)-3-((3-((trifluoromethyl)sulfonyl)phenyl)carbamoyl)bicyclo[2.2.1]heptan-2-yl)carbamoyl)phenoxy)hexanoic acid]
7 | 106% | 83 nM | 33 µL/min/mg | 770 µM (≈ 421 µg/mL) | 25 µL/min/1e6 cells | 5 µL/min/1e6 cells | 1.3 % free | CCC(CC)CNC(=O)[C@H]1[C@@H]2CC[C@@H](C2)[C@H]1NC(=O)c1cc(OC2CCC(C)(C(=O)O)CC2)c(F)cc1OC (some centres unmarked) [Example 43]
8 | 115% | 75 nM | 20 µL/min/mg | 880 µM (≈ 481 µg/mL) | 8.2 µL/min/1e6 cells | 3.4 µL/min/1e6 cells | 3.5 % free | COc1cc(F)c(O[C@H]2CC[C@@](C)(C(=O)O)CC2)cc1C(=O)N[C@@H]1[C@H]2CC[C@H](C2)[C@@H]1C(=O)NC12CC(F)(C1)C2 [Example 608]
9 | 127% | 300 nM | 30 µL/min/mg | 940 µM (≈ 593 µg/mL) | 16 µL/min/1e6 cells | 17 µL/min/1e6 cells | 1.9 % free | COc1cc(F)c(O[C@H]2CC[C@@H](C(=O)O)CC2)cc1C(=O)N[C@@H]1CCC[C@@H]1C(=O)Nc1cccc(S(=O)(=O)C(F)(F)F)c1 [Example 490]
10 | 98% | 120 nM | 9.1 µL/min/mg | 8 µM (≈ 5.2 µg/mL) | 12 µL/min/1e6 cells | 9.4 µL/min/1e6 cells | <0.33 % free | COc1cc(F)c(-c2cccc(C(=O)O)c2)cc1C(=O)N[C@H]1[C@@H](C(=O)Nc2ccc(F)c(S(=O)(=O)C(F)(F)F)c2)[C@@H]2C=C[C@H]1C2 (racemic) [Example 297]
11 | 104% | 500 nM | 32 µL/min/mg | 750 µM (≈ 431 µg/mL) | 130 µL/min/1e6 cells | 11 µL/min/1e6 cells | 2.2 % free | COc1cc(F)c(O[C@H]2CC[C@@H](C(=O)O)CC2)cc1C(=O)N[C@@H]1[C@H]2CC[C@H](C2)[C@@H]1C(=O)Nc1cccc(C(F)F)c1 [Example 10, (1S,4s)-4-(5-(((1S,2R,3S,4R)-3-((3-(Difluoromethyl)phenyl)carbamoyl)bicyclo[2.2.1]heptan-2-yl)carbamoyl)-2-fluoro-4-methoxyphenoxy)cyclohexane-1-carboxylic acid]
12 | 110% | 88 nM | 4.7 µL/min/mg | 690 µM (≈ 446 µg/mL) | 9.3 µL/min/1e6 cells | 6.5 µL/min/1e6 cells | <0.30 % free | COc1cc(F)c(-c2ccc(CC(=O)O)cc2)cc1C(=O)N[C@H]1[C@@H](C(=O)Nc2cccc(S(=O)(=O)C(F)(F)F)c2)[C@@H]2C=C[C@H]1C2 (racemic) [Example 234]
13 | 106% | 93 nM | 240 µL/min/mg | 29 µM (≈ 16.3 µg/mL) | 29 µL/min/1e6 cells | 17 µL/min/1e6 cells | 3 % free | CCC(CC)[C@H](C)NC(=O)[C@H]1[C@@H]2CC[C@@H](C2)[C@H]1NC(=O)c1cc(O[C@H]2CC[C@@](C)(C(=O)O)CC2)c(F)cc1OC (single isomer, unassigned) [Example 144, (1S,4s)-4-(5-(((1S,2R,3S,4R)-3-(((R*)-3-Ethylpentan-2-yl)carbamoyl)bicyclo-[2.2.1]heptan-2-yl)carbamoyl)-2-fluoro-4-methoxyphenoxy)-1-methylcyclohexane-1-carboxylic acid]
14 | 107% | 15 nM | 18 µL/min/mg | 960 µM (≈ 579 µg/mL) | 7.1 µL/min/1e6 cells | 3.1 µL/min/1e6 cells | 3.4 % free | COc1cc(Cl)c(O[C@H]2CC[C@@](C)(C(=O)O)CC2)cc1C(=O)N[C@@H]1[C@H]2CC[C@H](C2)[C@@H]1C(=O)NCC(C)(C)C(F)(F)F [Example 409]
15 | 119% | 460 nM | 14 µL/min/mg | > 1000 µM | 9.6 µL/min/1e6 cells | 11 µL/min/1e6 cells | 0.67 % free | COc1cc(F)c(-c2ccc(CC(=O)O)cc2)cc1C(=O)N[C@@H]1CCC[C@@H]1C(=O)Nc1cccc(S(=O)(=O)C(F)(F)F)c1 [Example 320]
